Experimental data published in the NIST ThermoML archive (doi:10.1021/acs.jced.6b00210).

Test: xn = mol fraction of the nth substance listed
Conditions: 100 kPa, Liquid; for viscosity: Concentric cylinders viscometry; for mass density: Vibrating tube method

Nc1ccccc1 [aniline] + CC(C)O
Conditions	mass density [kg/m3]	viscosity [mPa·s]
293.15 K, x1 = 0.0813	809.7	2.291
293.15 K, x1 = 0.1599	832	2.176
293.15 K, x1 = 0.2396	853.7	2.12
293.15 K, x1 = 0.349	882	2.1
293.15 K, x1 = 0.4402	904.3	2.17
293.15 K, x1 = 0.5598	932.1	2.33
293.15 K, x1 = 0.6501	952	2.54
293.15 K, x1 = 0.74	971	2.81
293.15 K, x1 = 0.8499	993.2	3.31
293.15 K, x1 = 0.9402	1010.6	3.93
293.15 K, x1 = 1	1021.7	4.37
298.15 K, x1 = 0.0813	805.3	1.963
298.15 K, x1 = 0.1599	827.5	1.86
298.15 K, x1 = 0.2396	849.2	1.8
298.15 K, x1 = 0.349	877.4	1.78
298.15 K, x1 = 0.4402	899.7	1.84
298.15 K, x1 = 0.5598	927.6	1.98
298.15 K, x1 = 0.6501	947.5	2.16
298.15 K, x1 = 0.74	966.5	2.39
298.15 K, x1 = 0.8499	988.8	2.84
298.15 K, x1 = 0.9402	1006.2	3.39
298.15 K, x1 = 1	1017.4	3.8
303.15 K, x1 = 0.0813	800.8	1.651
303.15 K, x1 = 0.1599	823	1.56
303.15 K, x1 = 0.2396	844.6	1.5
303.15 K, x1 = 0.349	872.8	1.47
303.15 K, x1 = 0.4402	895.1	1.48
303.15 K, x1 = 0.5598	923	1.58
303.15 K, x1 = 0.6501	942.9	1.7
303.15 K, x1 = 0.74	961.9	1.9
303.15 K, x1 = 0.8499	984.2	2.27
303.15 K, x1 = 0.9402	1001.8	2.73
303.15 K, x1 = 1	1013.2	3.13
308.15 K, x1 = 0.0813	796.4	1.454
308.15 K, x1 = 0.1599	818.5	1.39
308.15 K, x1 = 0.2396	840	1.34
308.15 K, x1 = 0.349	868.2	1.3
308.15 K, x1 = 0.4402	890.6	1.3
308.15 K, x1 = 0.5598	918.5	1.36
308.15 K, x1 = 0.6501	938.5	1.48
308.15 K, x1 = 0.74	957.6	1.67
308.15 K, x1 = 0.8499	980	1.99
308.15 K, x1 = 0.9402	997.7	2.39
308.15 K, x1 = 1	1009	2.75
313.15 K, x1 = 0.0813	791.9	1.29
313.15 K, x1 = 0.1599	814	1.23
313.15 K, x1 = 0.2396	835.5	1.18
313.15 K, x1 = 0.349	863.6	1.15
313.15 K, x1 = 0.4402	885.9	1.14
313.15 K, x1 = 0.5598	913.8	1.2
313.15 K, x1 = 0.6501	933.9	1.3
313.15 K, x1 = 0.74	953.1	1.48
313.15 K, x1 = 0.8499	975.6	1.79
313.15 K, x1 = 0.9402	993.3	2.13
313.15 K, x1 = 1	1004.7	2.43
318.15 K, x1 = 0.0813	787.2	1.125
318.15 K, x1 = 0.1599	809.2	1.076
318.15 K, x1 = 0.2396	830.7	1.043
318.15 K, x1 = 0.349	858.9	1.02
318.15 K, x1 = 0.4402	881.2	1.03
318.15 K, x1 = 0.5598	909.2	1.08
318.15 K, x1 = 0.6501	929.2	1.166
318.15 K, x1 = 0.74	948.5	1.34
318.15 K, x1 = 0.8499	971.1	1.6
318.15 K, x1 = 0.9402	988.9	1.9
318.15 K, x1 = 1	1000.4	2.14
323.15 K, x1 = 0.0813	782.4	0.97
323.15 K, x1 = 0.1599	804.3	0.91
323.15 K, x1 = 0.2396	825.7	0.88
323.15 K, x1 = 0.349	853.8	0.85
323.15 K, x1 = 0.4402	876.2	0.86
323.15 K, x1 = 0.5598	904.1	0.91
323.15 K, x1 = 0.6501	924.2	1.01
323.15 K, x1 = 0.74	943.4	1.18
323.15 K, x1 = 0.8499	966.1	1.45
323.15 K, x1 = 0.9402	984	1.74
323.15 K, x1 = 1	995.5	1.96
